Measured values reported in BindingDB's records for doi:10.1016/j.chembiol.2011.05.014 (The University of Chicago, 2011).
pIC50: −log10 of the molar value.

Molecular target: T1, HTH-type transcriptional regulator MgrA (Staphylococcus aureus, UniProt P0C1S0)
T1 sequence (P0C1S0 whole entry): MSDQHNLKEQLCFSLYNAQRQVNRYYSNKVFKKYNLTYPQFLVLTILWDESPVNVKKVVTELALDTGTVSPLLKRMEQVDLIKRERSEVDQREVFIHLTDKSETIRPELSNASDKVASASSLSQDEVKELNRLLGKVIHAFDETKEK
Test: Biochemical Assay
Conditions: pH 7.4
Protocol: A fluorescence anisotropy (FA)-based biochemical assay that monitors MgrA-DNA binding. To determine the binding affinity of MgrA to the labeled DNA, different amounts of MgrA were added into the 96-well format plate.

## Cc1ccc(C)n1[C@@H](CC(=O)O)c1ccc2c(c1)OCO2 [MgrA inhibitor, 2]
  pIC50: 4.52
